Results from paper PMC12163822, “Synthesis and Pharmacological Characterization of a Novel Cannabinoid Receptor 1 Antagonist” (ACS Omega, 2025).
“Also recorded” adds a separate entry of the source.

Experiments:
[1] = target: T1, CB1 receptor (Rattus norvegicus, UniProt P20272); assay: [3H]CP55,940 receptor autoradiography in rat brain slices; format: binding, Sprague-Dawley rat; parameters: fresh frozen sections from brain samples from wild-type; from tissue; host or cells: Sprague-Dawley rat brain sections; conditions: for [3H]CP55,940 binding: rat, 3 nM [3H]CP55,940 in the presence of compound 10 µM
Experimental: (§1) All brain sections were air-dried for 30 min and later immersed in Coplin jars for preincubation in a buffer containing 50 mM Tris–HCl and 1% of BSA (pH 7.4) for 30 min at room temperature. The objective of this preincubation was to remove endogenous ligands. […] Following incubation, tissue slices were washed with an ice-cold preincubation buffer, dipped in distilled water, and dried overnight. To generate autoradiograms, dry sections were placed in hermetically closed cassettes and exposed to β-radiation-sensitive films for 21 days at 4 °C. To calibrate the optical densities to fmol/mg tissue equivalent, [^3H]-microscales were exposed to the films. To quantify the calibrated films after scanning, Fiji software (Bethesda, […], USA) was used.

[2] = target: T1, CB1 receptor; assay: Functional [35S]GTPγS autoradiography in rat brain slices; format: biochemical, Sprague-Dawley rat; parameters: fresh frozen sections from brain samples from wild-type; from tissue; host or cells: Sprague-Dawley rat brain sections; conditions: for [35S]GTPγS binding, Stimulation (% over basal), CP55,940 + UVI3502 / [35S]GTPγS binding, Stimulation (% over basal): rat; for [35S]GTPγS binding, Stimulation (% over basal), CP55,940 + UVI3502: CP55,940 and UVI3502 both at 10 µM; for [35S]GTPγS binding, Stimulation (% over basal): compound alone 10 µM
Experimental: All brain sections were air-dried for 30 min and then immersed in Coplin jars for preincubation (4 times, 15 min each time) in an HEPES-based buffer (50 mM HEPES, 100 mM NaCl, 3 mM MgCl2, 0.2 mM EGTA, 0.5% BSA; pH 7.4) at 30 °C. The objective of this preincubation was the removal of endogenous ligands. […] Basal [^35S]-GTPγS binding was defined in the absence of the agonists in two consecutive slices. To define nonspecific binding, 10 μM of unlabeled GTPγS was added to the incubation in another section. Following incubation, slices were twice washed in an ice-cold 50 mM HEPES buffer (pH 7.4), dried, and exposed for 48 h to β-radiation sensitive film with a set of [^14C] standards calibrated for [^35S]. Calibrated films were scanned and quantified using Fiji software (Fiji, Bethesda, […], USA). The signal corresponding to nonspecific binding was previously subtracted from the basal and agonist-stimulated binding. Then, the data was expressed as the percentage of stimulation over basal following the formula: ([^35S]-GTPγS agonist-stimulated binding) × 100/([^35S]-GTPγS basal binding)-100.

[3] = target: T2, human CB1 receptor (Homo sapiens, UniProt P21554); assay: [35S]GTPγS functional binding assay in CHO cells overexpressing human CB1; format: biochemical; conditions: CB1 overexpressing CHO membranes, result in words
T2 construct: purchased Sigma-Aldrich; host or cells: CHO cells
Experimental: The compound with the best affinity was also tested using functional [^35S]-GTPγS binding assays to characterize its activity as an agonist or antagonist/inverse agonist. A protein concentration of 0.1 mg/mL of rat cortex homogenates and a protein concentration of 0.02 mg/mL of commercial CB1 overexpressing CHO cells were used for these assays, suspended in a reaction buffer (Tris–HCl 50 mM, EGTA 1 mM, MgCl2 3 mM, NaCl 100 mM, 0.5% BSA; pH 7.4). The target compound was used in concentrations ranging from 10^–11 to 10^–4 M and incubated for 2 h at 37 °C with agitation in the presence of 0.5 nM [^35S]-GTPγS and 50 μM GDP. Basal coupling of [^35S]-GTPγS to Gi/o proteins was determined by incubating the membrane aliquots with the radioligand in the absence of the target compound. To define nonspecific binding, 10 μM of unlabeled GTPγS was added to the incubation.

[4] = target: T2, human CB1 receptor; assay: [3H]CP55,940 inhibition curves in membranes from CHO cells overexpressing human CB1; format: binding
Experimental: Membrane homogenates from CHO cells overexpressing human CB1 and CB2 receptors, as well as matched wild-type cells, were used to test newly synthesized compounds and were acquired from Sigma-Aldrich (St Louis, MO, USA).
To stop the reaction, an ice-cold wash buffer (50 mM Tris–HCl and 0.5% BSA, pH 7.4) was added. Then, the membranes were retained by vacuum filtration to a Whatman GF/C glass microfiber filter (Sigma-Aldrich, St. Louis, MO, USA) and the free radioligand was discarded. Filters with the bound radioligand were transferred to vials containing 5 mL of Ultima Gold cocktail (Revvity, Boston, MA, USA) and measured with a Packard Tri-Carb 2200CA liquid scintillation counter (Revvity, Boston, MA, USA).
A concentration of 0.02 mg/mL of commercial WT (as control) and CB1 and CB2 overexpressing CHO cells were used, and the same protocol described above was followed. Rat spleen homogenates were also used at a concentration of 0.1 mg/mL as a further characterization of binding to the CB2 receptor, given the high expression of this receptor in this tissue and the practical lack of CB1 in it.

[5] = target: T3, CB1 receptor (Mus musculus, UniProt P47746); assay: [3H]CP55,940 receptor autoradiography in mouse brain slices; format: binding, Swiss mice; conditions: for [3H]CP55,940 binding: mouse, 3 nM [3H]CP55,940 in the presence of compound 10 µM
T3 construct: fresh frozen sections from brain samples from wild-type; from tissue; host or cells: Swiss mouse brain sections
Experimental: as §1

[6] = rat brain slices, 10 µM, result in words
[7] = nucleus basalis magnocellularis

T2 sequence (P21554 whole entry): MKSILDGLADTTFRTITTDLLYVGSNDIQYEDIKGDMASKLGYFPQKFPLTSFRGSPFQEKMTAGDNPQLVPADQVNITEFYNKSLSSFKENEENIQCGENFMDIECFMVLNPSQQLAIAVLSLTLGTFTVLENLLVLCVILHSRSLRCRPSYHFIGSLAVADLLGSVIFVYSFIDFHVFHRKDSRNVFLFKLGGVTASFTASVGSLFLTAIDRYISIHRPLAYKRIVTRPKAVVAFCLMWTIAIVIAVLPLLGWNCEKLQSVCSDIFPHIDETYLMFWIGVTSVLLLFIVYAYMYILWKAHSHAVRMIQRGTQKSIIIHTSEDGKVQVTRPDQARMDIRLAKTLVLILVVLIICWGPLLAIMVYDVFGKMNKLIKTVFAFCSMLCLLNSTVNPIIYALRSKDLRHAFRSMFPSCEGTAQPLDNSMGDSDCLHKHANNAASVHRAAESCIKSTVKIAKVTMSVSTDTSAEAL
T3 sequence (P47746 whole entry): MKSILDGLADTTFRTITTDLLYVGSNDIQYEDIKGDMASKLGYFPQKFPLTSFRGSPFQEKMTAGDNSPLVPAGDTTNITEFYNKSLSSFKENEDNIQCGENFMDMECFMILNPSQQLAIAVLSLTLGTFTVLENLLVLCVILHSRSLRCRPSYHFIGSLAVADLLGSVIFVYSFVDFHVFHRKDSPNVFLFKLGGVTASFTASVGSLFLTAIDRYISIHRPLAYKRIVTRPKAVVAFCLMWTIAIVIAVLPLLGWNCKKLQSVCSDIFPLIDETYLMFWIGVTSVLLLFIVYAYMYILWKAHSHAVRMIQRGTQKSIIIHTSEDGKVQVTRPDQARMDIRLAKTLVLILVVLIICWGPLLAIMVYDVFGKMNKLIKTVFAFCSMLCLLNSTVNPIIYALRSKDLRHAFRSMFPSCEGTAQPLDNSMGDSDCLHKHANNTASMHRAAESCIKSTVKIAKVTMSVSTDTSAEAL
T1 sequence (P20272 whole entry): as the sequence (P47746 whole entry) above, with D95E counted along it

- inhibition of [3H]CP55,940 binding in brain areas [1, 6]: partially inhibit
- [3H]CP55,940 binding ([1]; amygdala): 136 ± 52 fmol/mg t.e.
- [3H]CP55,940 binding ([1]; cerebellum (gray matter)): 421 ± 126 fmol/mg t.e.
- [3H]CP55,940 binding ([1]; cortex): 122 ± 25 fmol/mg t.e.
- [3H]CP55,940 binding ([1]; globus pallidus): 572 ± 40 fmol/mg t.e.
- [3H]CP55,940 binding ([1]; hippocampus dorsal): 184 ± 26 fmol/mg t.e.
- [3H]CP55,940 binding [1, 7]: 147 ± 18 fmol/mg t.e.
- [3H]CP55,940 binding ([1]; striatum): 291 ± 18 fmol/mg t.e.
- [3H]CP55,940 binding ([1]; substantia nigra): 1364 ± 581 fmol/mg t.e.
- activity on CP55,940-evoked [35S]GTPγS stimulation [2, 6]: acts as an antagonist
- [35S]GTPγS binding, Stimulation (% over basal), CP55,940 + UVI3502 ([2]; amygdala): -47 ± 30 % over basal
- [35S]GTPγS binding, Stimulation (% over basal) ([2]; amygdala): -35 ± 19 % over basal
- [35S]GTPγS binding, Stimulation (% over basal), CP55,940 + UVI3502 ([2]; cerebellum (gray matter)): -46 ± 31 % over basal
- [35S]GTPγS binding, Stimulation (% over basal) ([2]; cerebellum (gray matter)): -16 ± 51 % over basal
- [35S]GTPγS binding, Stimulation (% over basal), CP55,940 + UVI3502 ([2]; cortex): -60 ± 10 % over basal
- [35S]GTPγS binding, Stimulation (% over basal) ([2]; cortex): -45 ± 24 % over basal
- [35S]GTPγS binding, Stimulation (% over basal), CP55,940 + UVI3502 ([2]; globus pallidus): 89 ± 42 % over basal
- [35S]GTPγS binding, Stimulation (% over basal) ([2]; globus pallidus): -3 ± 46 % over basal
- [35S]GTPγS binding, Stimulation (% over basal), CP55,940 + UVI3502 ([2]; hippocampus dorsal): -62 ± 6 % over basal
- [35S]GTPγS binding, Stimulation (% over basal) ([2]; hippocampus dorsal): -40 ± 26 % over basal
- [35S]GTPγS binding, Stimulation (% over basal), CP55,940 + UVI3502 [2, 7]: -40 ± 11 % over basal
- [35S]GTPγS binding, Stimulation (% over basal) [2, 7]: -35 ± 30 % over basal
- [35S]GTPγS binding, Stimulation (% over basal), CP55,940 + UVI3502 ([2]; striatum): -54 ± 23 % over basal
- [35S]GTPγS binding, Stimulation (% over basal) ([2]; striatum): -34 ± 25 % over basal
- [35S]GTPγS binding, Stimulation (% over basal), CP55,940 + UVI3502 ([2]; substantia nigra): 14 ± 80 % over basal
- [35S]GTPγS binding, Stimulation (% over basal) ([2]; substantia nigra): -41 ± 24 % over basal
- IC50 [4]: 4.64 ± 1.6 µM
- total inhibition of [3H]CP55,940 binding ([4]; CB1 overexpressing CHO membranes): approximately 38%
- inhibition of [3H]CP55,940 binding in brain areas ([5]; mouse brain slices, 10 µM, result in words): partially inhibit
- [3H]CP55,940 binding ([5]; amygdala): 154 ± 8 fmol/mg t.e.
- [3H]CP55,940 binding ([5]; cerebellum (gray matter)): 409 ± 207 fmol/mg t.e.
- [3H]CP55,940 binding ([5]; cortex): 118 ± 18 fmol/mg t.e.
- [3H]CP55,940 binding ([5]; globus pallidus): 698 ± 16 fmol/mg t.e.
- [3H]CP55,940 binding ([5]; hippocampus dorsal): 181 ± 9 fmol/mg t.e.
- [3H]CP55,940 binding [5, 7]: 202 ± 19 fmol/mg t.e.
- [3H]CP55,940 binding ([5]; striatum): 159 ± 11 fmol/mg t.e.
- [3H]CP55,940 binding ([5]; substantia nigra): 1075 ± 22 fmol/mg t.e.
SMILES: CCOC(=O)/C=C1\C(=O)Nc2ccc(C)cc2-c2c1c1cc(OC)ccc1n2C(=O)OCC [UVI3502]
- stimulation of [35S]GTPγS binding (coupling of CB1 to Gi/o proteins) [3]: does not; also recorded: did not stimulate the coupling of CB1 receptors to Gi/o proteins
